Data taken from patent US7442699B2, “Anilinopyrimidine derivatives as IKK inhibitors and compositions and methods related thereto” (Signal Pharmaceuticals, LLC, priority 2000, dated 2008).
pIC50: −log10 of the molar value.

molecular target: T1, IKK-2 (Homo sapiens, UniProt O14920, S177E/S181E); test: IKK-2 Enzyme Assay; type: biochemical; conditions: IC50 value in the IKK-2 Enzyme Assay, more preferred compounds; 500 nM or less
T1 construct: His6
T1 sequence (O14920 1-756 S177E/S181E): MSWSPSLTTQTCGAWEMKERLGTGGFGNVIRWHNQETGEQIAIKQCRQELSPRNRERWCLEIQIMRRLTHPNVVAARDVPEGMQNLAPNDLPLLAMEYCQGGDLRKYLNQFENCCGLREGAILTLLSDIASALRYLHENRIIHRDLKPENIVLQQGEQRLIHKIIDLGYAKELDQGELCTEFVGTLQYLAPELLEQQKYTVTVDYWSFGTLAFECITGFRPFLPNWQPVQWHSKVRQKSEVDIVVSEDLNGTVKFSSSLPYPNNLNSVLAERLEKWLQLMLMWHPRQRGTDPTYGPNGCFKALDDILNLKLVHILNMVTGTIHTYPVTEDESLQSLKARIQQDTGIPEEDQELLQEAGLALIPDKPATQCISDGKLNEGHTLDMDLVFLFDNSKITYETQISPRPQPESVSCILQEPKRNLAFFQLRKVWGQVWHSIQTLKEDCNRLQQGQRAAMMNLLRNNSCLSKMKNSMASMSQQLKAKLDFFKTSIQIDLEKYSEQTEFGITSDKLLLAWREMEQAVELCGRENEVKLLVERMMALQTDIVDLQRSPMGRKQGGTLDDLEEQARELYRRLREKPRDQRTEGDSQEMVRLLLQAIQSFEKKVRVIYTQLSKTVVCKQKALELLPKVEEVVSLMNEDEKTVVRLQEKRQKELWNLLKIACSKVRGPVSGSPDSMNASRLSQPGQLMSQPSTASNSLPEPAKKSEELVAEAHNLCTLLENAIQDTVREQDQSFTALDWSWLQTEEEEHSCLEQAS
Method: The mixture is preincubated for 15 minutes at room temperature. […] After 30 minutes the precipitate is harvested onto a filter plate to which 50 μl of scintillation fluid is added and then quantified by a scintillation counter.

Structure (SMILES)	pIC50
O=C(c1ccc(Nc2nccc(-c3ccc(Cl)cc3)n2)cc1)N1CCC2(CC1)OCCO2 [Compound 17-139]	≥ 6.30

same assay, conditions: IC50 value in the IKK-2 Enzyme Assay, preferred compounds; 1 μM or less

Structure (SMILES)	pIC50
O=C(c1ccc(Nc2nccc(-c3ccc(Cl)cc3)n2)cc1)N1CCC2(CC1)OCCO2 [Compound 17-139]	≥ 6.00

same assay, conditions: more preferred compounds; 500 nM or less; read-out: IC50 value in the IKK-2 Enzyme Assay

Structure (SMILES)	pIC50
NC(=O)c1ccc(Nc2nccc(-c3ccc(S(=O)(=O)c4ccncc4)cc3)n2)cc1 [Compound 3-8]	≥ 6.30
NC(=O)c1ccc(Nc2nccc(-c3ccc(SCCCO)cc3)n2)cc1 [Compound 3-14]	≥ 6.30
NC(=O)c1ccc(Nc2nccc(-c3ccc(S(=O)(=O)c4ccccc4)cc3)n2)cc1 [Compound 3-21]	≥ 6.30
CN(C)C(=O)c1ccc(Nc2nccc(-c3ccc(Cl)cc3)n2)cc1 [Compound 17-2]	≥ 6.30
CN(C)C(=O)c1ccc(Nc2nccc(-c3ccc(Br)cc3)n2)cc1 [Compound 17-18]	≥ 6.30
O=C(c1ccc(Nc2nccc(-c3ccc(Cl)cc3)n2)cc1)N1CCC(O)CC1 [Compound 17-20]	≥ 6.30
O=C(c1ccc(Nc2nccc(-c3ccc(Cl)cc3)n2)cc1)N1CCC[C@@H]1CO [Compound 17-27]	≥ 6.30
O=C(c1ccc(Nc2nccc(-c3ccc(Cl)cc3)n2)cc1)N1CCC(O)C1 (stereo not drawn) [Compound 17-28]	≥ 6.30
CC(=O)N1CCN(C(=O)c2ccc(Nc3nccc(-c4ccc(S(=O)(=O)c5ccncc5)cc4)n3)cc2)CC1 [Compound 17-29]	≥ 6.30
O=C(c1ccc(Nc2nccc(-c3ccc(S(=O)(=O)c4ccncc4)cc3)n2)cc1)N1CCN(C(=O)c2ccco2)CC1 [Compound 17-30]	≥ 6.30
CN(C)C(=O)c1ccc(Nc2nccc(-c3ccc(SCCCO)cc3)n2)cc1 [Compound 17-31]	≥ 6.30
CC(C)NC(=O)CN1CCN(C(=O)c2ccc(Nc3nccc(-c4ccc(SCCCO)cc4)n3)cc2)CC1 [Compound 17-32]	≥ 6.30
CC(=O)N1CCN(C(=O)c2ccc(Nc3nccc(-c4ccc(SCCCO)cc4)n3)cc2)CC1 [Compound 17-33]	≥ 6.30
O=C(c1ccc(Nc2nccc(-c3ccc(SCCCO)cc3)n2)cc1)N1CCN(C(=O)c2ccco2)CC1 [Compound 17-34]	≥ 6.30
CCN1CCN(C(=O)c2ccc(Nc3nccc(-c4ccc(Cl)cc4)n3)cc2)CC1 [Compound 17-35]	≥ 6.30
CC(C)(C)OC(=O)N1CCN(C(=O)c2ccc(Nc3nccc(-c4ccc(Cl)cc4)n3)cc2)CC1 [Compound 17-36]	≥ 6.30
CCC(=O)N1CCN(C(=O)c2ccc(Nc3nccc(-c4ccc(Cl)cc4)n3)cc2)CC1 [Compound 17-37]	≥ 6.30

Structure (SMILES)	pIC50
O=C(NCCCN1CCOCC1)c1ccc(Nc2nccc(-c3ccc(Cl)cc3)n2)cc1 [Compound 17-86]	≥ 6.30
COC(=O)CNC(=O)c1ccc(Nc2nccc(-c3ccc(Cl)cc3)n2)cc1 [Compound 17-91]	≥ 6.30
CN1CCN(C(=O)c2ccc(Nc3nccc(-c4ccc(Cl)cc4)n3)cc2)CC1 [Compound 17-127]	≥ 6.30
CC(=O)N1CCN(C(=O)c2ccc(Nc3nccc(-c4ccc(Cl)cc4)n3)cc2)CC1 [Compound 17-129]	≥ 6.30
O=CN1CCN(C(=O)c2ccc(Nc3nccc(-c4ccc(Cl)cc4)n3)cc2)CC1 [Compound 17-131]	≥ 6.30
O=C(c1ccc(Nc2nccc(-c3ccc(Cl)cc3)n2)cc1)N1CCOCC1 [Compound 17-133]	≥ 6.30
CCOC(=O)N1CCN(C(=O)c2ccc(Nc3nccc(-c4ccc(Cl)cc4)n3)cc2)CC1 [Compound 17-137]	≥ 6.30
CC(C)NC(=O)CN1CCN(C(=O)c2ccc(Nc3nccc(-c4ccc(Cl)cc4)n3)cc2)CC1 [Compound 17-141]	≥ 6.30
CN(C)CCN(Cc1ccccc1)C(=O)c1ccc(Nc2nccc(-c3ccc(Cl)cc3)n2)cc1 [Compound 17-150]	≥ 6.30
CN(C)CCCNC(=O)c1ccc(Nc2nccc(-c3ccc(Cl)cc3)n2)cc1 [Compound 17-154]	≥ 6.30
O=C(c1ccc(Nc2nccc(-c3ccc(Cl)cc3)n2)cc1)N1CCN(C(=O)c2ccco2)CC1 [Compound 17-159]	≥ 6.30
CC(=O)N1CCCN(C(=O)c2ccc(Nc3nccc(-c4ccc(Cl)cc4)n3)cc2)CC1 [Compound 17-160]	≥ 6.30
O=C(c1ccc(Nc2nccc(-c3ccc(Cl)cc3)n2)cc1)N1CCN(Cc2cccnc2)CC1 [Compound 17-161]	≥ 6.30
CCN(C(C)=O)C1CCN(C(=O)c2ccc(Nc3nccc(-c4ccc(Cl)cc4)n3)cc2)C1 (stereo not drawn) [Compound 17-162]	≥ 6.30
CC(=O)N(C)C1CCN(C(=O)c2ccc(Nc3nccc(-c4ccc(Cl)cc4)n3)cc2)C1 (stereo not drawn) [Compound 17-163]	≥ 6.30
O=C(c1ccc(Nc2nccc(-c3ccc(Cl)cc3)n2)cc1)N1CCC(N2CCCCC2)CC1 [Compound 17-169]	≥ 6.30
O=C(c1ccc(Nc2nccc(-c3ccc(Cl)cc3)n2)cc1)N1CCC(N2CCCC2)CC1 [Compound 17-171]	≥ 6.30

same assay, conditions: preferred compounds; 1 μM or less; read-out: IC50 value in the IKK-2 Enzyme Assay

Structure (SMILES)	pIC50
NC(=O)c1ccc(Nc2nccc(-c3ccc(Cl)cc3)n2)cc1 [Compound 1, 4-{[4-(4-chlorophenyl)pyrimidin-2-yl]amino}benzamide]	≥ 6.00
NC(=O)c1ccc(Nc2nccc(-c3ccc(S(=O)(=O)c4ccncc4)cc3)n2)cc1 [Compound 3-8]	≥ 6.00
NC(=O)c1ccc(Nc2nccc(-c3ccc(S(=O)(=O)c4ccccn4)cc3)n2)cc1 [Compound 3-9]	≥ 6.00
NC(=O)c1ccc(Nc2nccc(-c3ccc(S(=O)(=O)c4cccnc4)cc3)n2)cc1 [Compound 3-13]	≥ 6.00
NC(=O)c1ccc(Nc2nccc(-c3ccc(SCCCO)cc3)n2)cc1 [Compound 3-14]	≥ 6.00
NC(=O)c1ccc(Nc2nccc(-c3ccc(S(=O)(=O)CCCO)cc3)n2)cc1 [Compound 3-15]	≥ 6.00
NC(=O)c1ccc(Nc2nccc(-c3ccc(S(=O)(=O)c4ccccc4)cc3)n2)cc1 [Compound 3-21]	≥ 6.00
NC(=O)c1ccc(Nc2nccc(-c3ccc4ccccc4c3)n2)cc1 [Compound 3-34]	≥ 6.00
CN(C)C(=O)c1ccc(Nc2nccc(-c3ccc(Cl)cc3)n2)cc1 [Compound 17-2]	≥ 6.00
CNC(=O)c1ccc(Nc2nccc(-c3ccc(Cl)cc3)n2)cc1 [Compound 17-3]	≥ 6.00
CN(C)C(=O)c1ccc(Nc2nccc(-c3ccc(Br)cc3)n2)cc1 [Compound 17-18]	≥ 6.00
O=C(c1ccc(Nc2nccc(-c3ccc(Cl)cc3)n2)cc1)N1CCC(O)CC1 [Compound 17-20]	≥ 6.00
O=C(NCCCn1ccnc1)c1ccc(Nc2nccc(-c3ccc(Cl)cc3)n2)cc1 [Compound 17-21]	≥ 6.00
CC(=O)NCCNC(=O)c1ccc(Nc2nccc(-c3ccc(Cl)cc3)n2)cc1 [Compound 17-22]	≥ 6.00
O=C(NCCCN1CCCCC1)c1ccc(Nc2nccc(-c3ccc(Cl)cc3)n2)cc1 [Compound 17-23]	≥ 6.00
O=C(NCCCO)c1ccc(Nc2nccc(-c3ccc(Cl)cc3)n2)cc1 [Compound 17-25]	≥ 6.00
O=C(c1ccc(Nc2nccc(-c3ccc(Cl)cc3)n2)cc1)N1CCC[C@@H]1CO [Compound 17-27]	≥ 6.00
O=C(c1ccc(Nc2nccc(-c3ccc(Cl)cc3)n2)cc1)N1CCC(O)C1 (stereo not drawn) [Compound 17-28]	≥ 6.00
CC(=O)N1CCN(C(=O)c2ccc(Nc3nccc(-c4ccc(S(=O)(=O)c5ccncc5)cc4)n3)cc2)CC1 [Compound 17-29]	≥ 6.00

Structure (SMILES)	pIC50
O=C(c1ccc(Nc2nccc(-c3ccc(S(=O)(=O)c4ccncc4)cc3)n2)cc1)N1CCN(C(=O)c2ccco2)CC1 [Compound 17-30]	≥ 6.00
CN(C)C(=O)c1ccc(Nc2nccc(-c3ccc(SCCCO)cc3)n2)cc1 [Compound 17-31]	≥ 6.00
CC(C)NC(=O)CN1CCN(C(=O)c2ccc(Nc3nccc(-c4ccc(SCCCO)cc4)n3)cc2)CC1 [Compound 17-32]	≥ 6.00
CC(=O)N1CCN(C(=O)c2ccc(Nc3nccc(-c4ccc(SCCCO)cc4)n3)cc2)CC1 [Compound 17-33]	≥ 6.00
O=C(c1ccc(Nc2nccc(-c3ccc(SCCCO)cc3)n2)cc1)N1CCN(C(=O)c2ccco2)CC1 [Compound 17-34]	≥ 6.00
CCN1CCN(C(=O)c2ccc(Nc3nccc(-c4ccc(Cl)cc4)n3)cc2)CC1 [Compound 17-35]	≥ 6.00
CC(C)(C)OC(=O)N1CCN(C(=O)c2ccc(Nc3nccc(-c4ccc(Cl)cc4)n3)cc2)CC1 [Compound 17-36]	≥ 6.00
O=C(NCCCN1CCCC1=O)c1ccc(Nc2nccc(-c3ccc(Cl)cc3)n2)cc1 [Compound 17-54]	≥ 6.00
O=C(c1ccc(Nc2nccc(-c3ccc(Cl)cc3)n2)cc1)N1CCCCC1 [Compound 17-71]	≥ 6.00
COCCCNC(=O)c1ccc(Nc2nccc(-c3ccc(Cl)cc3)n2)cc1 [Compound 17-72]	≥ 6.00
O=C(NCCCN1CCOCC1)c1ccc(Nc2nccc(-c3ccc(Cl)cc3)n2)cc1 [Compound 17-86]	≥ 6.00
COC(=O)CNC(=O)c1ccc(Nc2nccc(-c3ccc(Cl)cc3)n2)cc1 [Compound 17-91]	≥ 6.00
O=C(NCCc1ccccn1)c1ccc(Nc2nccc(-c3ccc(Cl)cc3)n2)cc1 [Compound 17-118]	≥ 6.00
CN1CCN(C(=O)c2ccc(Nc3nccc(-c4ccc(Cl)cc4)n3)cc2)CC1 [Compound 17-127]	≥ 6.00
O=C(c1ccc(Nc2nccc(-c3ccc(Cl)cc3)n2)cc1)N1CCN(Cc2ccc3c(c2)OCO3)CC1 [Compound 17-128]	≥ 6.00
CC(=O)N1CCN(C(=O)c2ccc(Nc3nccc(-c4ccc(Cl)cc4)n3)cc2)CC1 [Compound 17-129]	≥ 6.00
O=CN1CCN(C(=O)c2ccc(Nc3nccc(-c4ccc(Cl)cc4)n3)cc2)CC1 [Compound 17-131]	≥ 6.00
CCCNC(=O)c1ccc(Nc2nccc(-c3ccc(Cl)cc3)n2)cc1 [Compound 17-132]	≥ 6.00
O=C(c1ccc(Nc2nccc(-c3ccc(Cl)cc3)n2)cc1)N1CCOCC1 [Compound 17-133]	≥ 6.00

Structure (SMILES)	pIC50
O=C(c1ccc(Nc2nccc(-c3ccc(Cl)cc3)n2)cc1)N1CCN(c2ccc([N+](=O)[O-])cc2)CC1 [Compound 17-136]	≥ 6.00
CCOC(=O)N1CCN(C(=O)c2ccc(Nc3nccc(-c4ccc(Cl)cc4)n3)cc2)CC1 [Compound 17-137]	≥ 6.00
CC(C)NC(=O)CN1CCN(C(=O)c2ccc(Nc3nccc(-c4ccc(Cl)cc4)n3)cc2)CC1 [Compound 17-141]	≥ 6.00
O=C(NCCN1CCOCC1)c1ccc(Nc2nccc(-c3ccc(Cl)cc3)n2)cc1 [Compound 17-142]	≥ 6.00
O=C(c1ccc(Nc2nccc(-c3ccc(Cl)cc3)n2)cc1)N1CC=CCC1 [Compound 17-144]	≥ 6.00
CCN(Cc1ccncc1)C(=O)c1ccc(Nc2nccc(-c3ccc(Cl)cc3)n2)cc1 [Compound 17-147]	≥ 6.00
CN(C)CCN(Cc1ccccc1)C(=O)c1ccc(Nc2nccc(-c3ccc(Cl)cc3)n2)cc1 [Compound 17-150]	≥ 6.00
CN(CCc1ccccn1)C(=O)c1ccc(Nc2nccc(-c3ccc(Cl)cc3)n2)cc1 [Compound 17-151]	≥ 6.00
CN1CCCC1CCNC(=O)c1ccc(Nc2nccc(-c3ccc(Cl)cc3)n2)cc1 (stereo not drawn) [Compound 17-152]	≥ 6.00
CCN(CC)CCCNC(=O)c1ccc(Nc2nccc(-c3ccc(Cl)cc3)n2)cc1 [Compound 17-153]	≥ 6.00
CN(C)CCCNC(=O)c1ccc(Nc2nccc(-c3ccc(Cl)cc3)n2)cc1 [Compound 17-154]	≥ 6.00
O=C(c1ccc(Nc2nccc(-c3ccc(Cl)cc3)n2)cc1)N1CCN(c2ccccc2)CC1 [Compound 17-158]	≥ 6.00
O=C(c1ccc(Nc2nccc(-c3ccc(Cl)cc3)n2)cc1)N1CCN(C(=O)c2ccco2)CC1 [Compound 17-159]	≥ 6.00
CC(=O)N1CCCN(C(=O)c2ccc(Nc3nccc(-c4ccc(Cl)cc4)n3)cc2)CC1 [Compound 17-160]	≥ 6.00
O=C(c1ccc(Nc2nccc(-c3ccc(Cl)cc3)n2)cc1)N1CCN(Cc2cccnc2)CC1 [Compound 17-161]	≥ 6.00
CCN(C(C)=O)C1CCN(C(=O)c2ccc(Nc3nccc(-c4ccc(Cl)cc4)n3)cc2)C1 (stereo not drawn) [Compound 17-162]	≥ 6.00
CC(=O)N(C)C1CCN(C(=O)c2ccc(Nc3nccc(-c4ccc(Cl)cc4)n3)cc2)C1 (stereo not drawn) [Compound 17-163]	≥ 6.00
O=C(c1ccc(Nc2nccc(-c3ccc(Cl)cc3)n2)cc1)N1CCC(N2CCCCC2)CC1 [Compound 17-169]	≥ 6.00
O=C(c1ccc(Nc2nccc(-c3ccc(Cl)cc3)n2)cc1)N1CCC(N2CCCC2)CC1 [Compound 17-171]	≥ 6.00
